Here are results for 13 compounds from patent US20200087248A1, “Fluoroallylamine Derivative And Use Thereof” (SICHUAN KELUN-BIOTECH BIOPHARMACEUTICAL CO., LTD., priority 2017, published 2020).

Where a name gives a salt, the structure may show the parent alone.

In data set [1] the target is T1, VAP-1 in abdominal fat of mice (Mus musculus, UniProt O70423).
T1 construct: abdominal fat was collected and homogenized; from tissue; host or cells: abdominal fat of BALBc mice (homogenate supernatant)
T1 sequence (O70423 1-765): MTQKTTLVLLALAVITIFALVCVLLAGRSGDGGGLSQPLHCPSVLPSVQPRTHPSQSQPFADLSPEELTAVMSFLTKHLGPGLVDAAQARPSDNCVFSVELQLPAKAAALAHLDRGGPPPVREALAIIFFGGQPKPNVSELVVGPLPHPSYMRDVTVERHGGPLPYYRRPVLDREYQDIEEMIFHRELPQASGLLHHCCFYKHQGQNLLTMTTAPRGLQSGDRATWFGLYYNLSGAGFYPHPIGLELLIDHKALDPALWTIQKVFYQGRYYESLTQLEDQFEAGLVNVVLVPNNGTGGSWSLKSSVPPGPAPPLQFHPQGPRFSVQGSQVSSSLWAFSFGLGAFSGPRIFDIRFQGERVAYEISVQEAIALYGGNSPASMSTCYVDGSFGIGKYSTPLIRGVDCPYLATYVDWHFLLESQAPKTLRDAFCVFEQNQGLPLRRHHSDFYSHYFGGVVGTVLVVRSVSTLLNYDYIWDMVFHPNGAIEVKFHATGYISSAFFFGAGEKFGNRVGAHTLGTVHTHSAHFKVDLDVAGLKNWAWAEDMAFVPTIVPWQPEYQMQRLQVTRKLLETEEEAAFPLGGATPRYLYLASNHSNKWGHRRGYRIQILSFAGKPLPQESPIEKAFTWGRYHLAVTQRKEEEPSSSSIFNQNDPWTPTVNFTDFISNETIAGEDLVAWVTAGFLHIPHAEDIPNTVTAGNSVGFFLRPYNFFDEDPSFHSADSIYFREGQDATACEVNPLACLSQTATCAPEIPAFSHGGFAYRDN
As to the kind of experiment: Inhibition of the enzymatic activity of VAP-1 ex-vivo, abdominal fat after oral dosing. The following applies: abdominal fat collected after six hours; for inhibition at 0.5 mg/kg / inhibition at 2 mg/kg: mouse, read-out: Inhibition rate (%) against the enzymatic activity of VAP-1 (ex-vivo); for inhibition at 0.5 mg/kg: 0.5 mg/kg oral; for Inhibition rate (%) against the enzymatic activity of VAP-1 (ex-vivo) / inhibition at 2 mg/kg: 2 mg/kg oral. It is filed as in vivo, BALBc mice. The procedure: Inhibition Experiment Against the Enzymatic Activity (ex-vivo)
Tissue homogenate buffer solution (20 mM HEPES, pH 7.2, 1 mM EDTA, 250 mM sucrose, PMSF 0.2 mM)
(§1) Reaction buffer solution: 50 mM PBS, pH 7.4
(§2) Test kit: Amplex® Red Monoamine Oxidase Assay, Manufacturer: ThermoFisher
BALBc mice were administrated orally with different doses of the test compound, and the vehicle group was used as the control group. After six hours, abdominal fat was collected and homogenized at 1:20 (w/v) with the pre-cooled homogenate buffer solution, and thereafter, the homogenate was centrifuged at 10,000 g and 4° C. or 10 minutes, the supernatant was collected and stored at -80° C. for further use.
A test sample was diluted with the reaction buffer solution and successively added with the inhibition solution A: 1 μM Clorgyline+1 μM pargylin, to inhibit the activities of MAO-A and MAO-B, and the inhibition solution B: 1 μM Clorgyline+1 μM Pargylin+1 μM Mofegiline as the blank control, and after being incubated at room temperature for 20 min, 500 μM benzylamine hydrochloride, 1 U/mL HRP and 200 μM Amplex Red reagent were added to start the reaction. By referring to the method in “Experiment of inhibiting the enzymatic activity of VAP-1”, relative activity of each dose group was calculated, wherein the ratio of the fluorescent signal to reaction time in the linear range is the reaction rate, and the vehicle group is the positive control, thereby to study the inhibition of the compound against the enzymatic activity of VAP-1 in abdominal fat of mice.

Data set [2] deals with T2, VAP-1 (Homo sapiens, UniProt Q16853).
T2 construct: purchased R&D Systems
T2 sequence (Q16853 1-763): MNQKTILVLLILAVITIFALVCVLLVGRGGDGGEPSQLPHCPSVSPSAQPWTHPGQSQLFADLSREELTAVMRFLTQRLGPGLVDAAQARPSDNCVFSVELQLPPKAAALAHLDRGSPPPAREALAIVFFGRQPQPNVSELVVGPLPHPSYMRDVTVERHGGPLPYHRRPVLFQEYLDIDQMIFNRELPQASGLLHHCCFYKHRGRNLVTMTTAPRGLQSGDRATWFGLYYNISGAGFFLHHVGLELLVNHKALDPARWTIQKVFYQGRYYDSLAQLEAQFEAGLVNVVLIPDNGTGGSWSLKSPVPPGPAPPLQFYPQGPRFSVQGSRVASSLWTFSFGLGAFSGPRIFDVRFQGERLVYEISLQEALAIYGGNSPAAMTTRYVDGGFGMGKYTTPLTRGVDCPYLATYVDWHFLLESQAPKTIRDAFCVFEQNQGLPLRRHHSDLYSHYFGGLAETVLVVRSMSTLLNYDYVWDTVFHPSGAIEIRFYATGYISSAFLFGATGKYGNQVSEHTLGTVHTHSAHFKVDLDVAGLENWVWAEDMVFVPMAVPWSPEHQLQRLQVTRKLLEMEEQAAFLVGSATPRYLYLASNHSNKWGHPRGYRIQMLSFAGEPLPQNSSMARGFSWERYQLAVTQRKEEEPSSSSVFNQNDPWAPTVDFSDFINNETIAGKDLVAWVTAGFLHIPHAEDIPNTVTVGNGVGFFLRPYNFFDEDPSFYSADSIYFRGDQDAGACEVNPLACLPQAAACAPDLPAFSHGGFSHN
As to the kind of experiment: Inhibition of the enzymatic activity of VAP-1 in vitro (Amplex Red). It is filed as biochemical. The settings on record: VAP-1 protein about 20 nM, 10 min pre-incubation, benzylamine substrate; read-out: IC50, inhibition against the enzymatic activity of VAP-1. The procedure:
Inhibition Experiment Against the Enzymatic Activity of VAP-1(Vascular Adhesion Protein 1) in vitro
as §2, §1
Enzyme: VAP-1, Manufacturer: R&D Systems
VAP-1 protein (about 20 nM) and different concentrations of the test compound were pre-incubated at room temperature for 10 minutes, followed by an addition of […] benzylamine hydrochloride, 1 U/mL HRP and 200 μM Amplex Red reagent according to the specification of the test kit to start the reaction. The reaction plate was placed in the enzyme marker, and in kinetic mode, fluorescence signals were measured at Ex/Em=540/590 nm. The relative inhibition activity of each concentration group was calculated, wherein the ratio (slope) of fluorescence signal to reaction time in the linear range is the reaction rate, the vehicle group (DMSO) is the negative control, and the reaction buffer solution group (without enzymes and the compounds) is the blank control. The half inhibition concentration (IC50) of the compound was calculated according to four-parameter model fitting curve.

For data set [3], the target named is T3, hERG (Homo sapiens, UniProt Q12809).
T3 construct: purchased ThermoFisher; host or cells: hERG cell membrane supplied with the kit
Description: hERG fluorescence polarization inhibition experiment. The following applies: hERG cell membrane, 25° C. 2 hours, read-out: hERG (IC50 range, competitive binding vs tracer). The procedure: hERG (Ether-a-go-go-related Gene Potassium Channel) Inhibition Experiment
Reagent: Predictor™ hERG Fluorescence Polarization Assay Kit, Manufacturer: ThermoFisher
The above test kit was used to evaluate the potential of the compound for inducing heart QT prolongation. According to the method as indicated in the specification of the test kit, the test compound, the positive control (E4031) and negative control (Experimental buffer solution) in the kit were added to a microwell plate containing hERG cell membrane, and then a tracer having high affinity to hERG was added. The microwell plate was then incubated at 25° C. for 2 hours, a BMG PHAREStar polyfunctional enzyme marker was used to test the variations in the fluorescent polarization value. By calculating the percent inhibition rates (%) at different concentrations, the range of the half inhibition concentration (IC50) was determined:
Percent inhibition rate (%)=(1-(mP of the test compound-mP of 30 μM E4031)/(mP of experimental buffer solution-mP of 30 μM E4031))*100.

T3 sequence (Q12809 whole entry): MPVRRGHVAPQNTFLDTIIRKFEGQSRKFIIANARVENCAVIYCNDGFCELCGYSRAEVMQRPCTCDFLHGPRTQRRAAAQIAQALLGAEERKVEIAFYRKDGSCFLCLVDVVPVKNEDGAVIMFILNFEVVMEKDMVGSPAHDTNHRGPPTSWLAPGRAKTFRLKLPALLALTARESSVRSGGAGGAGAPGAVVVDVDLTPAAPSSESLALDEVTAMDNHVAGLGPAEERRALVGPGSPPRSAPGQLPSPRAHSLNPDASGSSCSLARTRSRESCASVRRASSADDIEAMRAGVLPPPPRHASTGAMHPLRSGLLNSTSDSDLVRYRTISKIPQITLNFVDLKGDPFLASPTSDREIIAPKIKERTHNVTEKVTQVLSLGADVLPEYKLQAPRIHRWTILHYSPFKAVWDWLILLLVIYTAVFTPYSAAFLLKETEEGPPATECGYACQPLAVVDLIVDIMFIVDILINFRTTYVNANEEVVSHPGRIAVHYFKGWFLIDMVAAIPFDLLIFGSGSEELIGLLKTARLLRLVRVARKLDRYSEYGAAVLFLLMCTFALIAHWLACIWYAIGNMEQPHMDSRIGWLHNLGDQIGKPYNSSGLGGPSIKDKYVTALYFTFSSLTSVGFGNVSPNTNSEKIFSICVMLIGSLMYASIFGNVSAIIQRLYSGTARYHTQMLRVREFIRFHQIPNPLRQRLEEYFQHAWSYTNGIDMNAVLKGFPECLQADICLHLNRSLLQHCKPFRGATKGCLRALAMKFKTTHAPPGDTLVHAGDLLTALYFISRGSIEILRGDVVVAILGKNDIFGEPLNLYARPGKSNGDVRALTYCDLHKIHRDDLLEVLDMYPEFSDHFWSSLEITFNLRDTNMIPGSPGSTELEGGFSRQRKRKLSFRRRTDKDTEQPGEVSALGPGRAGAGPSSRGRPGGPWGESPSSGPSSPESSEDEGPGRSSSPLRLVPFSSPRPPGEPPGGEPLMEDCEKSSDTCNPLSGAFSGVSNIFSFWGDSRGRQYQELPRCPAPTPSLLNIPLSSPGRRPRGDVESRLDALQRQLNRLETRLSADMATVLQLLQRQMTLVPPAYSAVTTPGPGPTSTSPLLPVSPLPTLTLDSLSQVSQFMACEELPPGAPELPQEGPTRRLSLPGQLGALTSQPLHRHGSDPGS

For the compound `NC/C(=C/F)COc1ccc(C(=O)Nc2ccccc2)cc1` [TM1-Z, (Z)-N-phenyl-4-((2-aminomethyl-3-fluoroallyl)oxy)-benzamide trifluoroacetate], the inhibition at 0.5 mg/kg in data set [1] amounted to 93.3 ± 5.4%. For the same compound, the values for the IC50 in data set [2] and in data set [3] were 0.7 ± 0.1 nM and above 10000 nM, respectively.

Turning to `NCC(=CF)COc1ccc2c(c1)CCNC2=O.O=C(O)C(F)(F)F` [TM26, 6-((2-aminomethyl-3-fluoroallyl)oxy)-3,4-dihydroisoquinolin-1(2H)-one trifluoroacetate], in data set [1], the “Inhibition rate (%) against the enzymatic activity of VAP-1 (ex-vivo)” value (shortened to “Inhibition rate (%)”) was “completely inhibited” and the inhibition at 2 mg/kg is 112 ± 7.1%. In data set [2], the IC50 is 5.8 ± 1 nM. Besides, the IC50 in data set [3] is above 30000 nM.

`NCC(=CF)COc1ccc2c(c1)CN(Cc1ccc(Cl)cc1)C2=O` [TM33, 5-((2-aminomethyl-3-fluoroallyl)oxy)-2-(4-chlorobenzyl)isoindolin-1-one]: in data set [1], the “Inhibition rate (%)” value is given as “completely inhibited” and the inhibition at 2 mg/kg worked out at 105 ± 9.1%. Besides, the IC50 in data set [2] was 3.3 ± 0.2 nM.

For `NC/C(=C/F)COc1ccc(-c2ncccn2)cc1` [TM39-Z, (Z)-2-(4-(2-pyrimidyl)phenoxymethyl)-3-fluoroallylamine trifluoroacetate], the inhibition at 0.5 mg/kg in data set [1] amounted to 93.2 ± 3.9%. In addition, the 50% inhibitory concentration (IC50) is 0.7 ± 0.1 nM in data set [2] and above 10000 nM in data set [3].

`NCC(=CF)COc1ccc(-c2nc3ccc(Cl)cc3s2)cc1` [TM41, 2-(4-(6-chloro-benzothiazol-2-yl)phenoxymethyl)-3-fluoroallylamine trifluoroacetate]: the inhibition at 2 mg/kg in data set [1] was 96.1 ± 17.4%. The IC50 in data set [2] was determined as 4.8 ± 0.7 nM.

As to `NCC(=CF)COc1ccc(-c2nc3ccccc3[nH]2)cc1.O=C(O)C(F)(F)F` [TM42, 2-(4-(1H-benzoimidazol-2-yl)phenoxymethyl)-3-fluoroallylamine trifluoroacetate], in data set [1], the “Inhibition rate (%)” value was “completely inhibited” and the inhibition at 2 mg/kg came out at 106 ± 8.4%. In addition, the IC50 in data set [2] worked out at 1.6 ± 0.2 nM. In addition, in data set [3], the half-maximal inhibitory concentration (IC50) is above 10000 nM.

Turning to `NCC(=CF)COc1ccc(C(=O)N2CCC(c3ccccc3)CC2)cc1` [TM44, (4-((2-aminomethyl-3-fluoroallyl)oxy)phenyl)-(4-phenylpiperidin-1-yl)methanone trifluoroacetate], the inhibition at 2 mg/kg in data set [1] was 95.8 ± 6.2%. The IC50 in data set [2] is 3.4 ± 0.4 nM; in data set [3] it was above 10000 nM.

Take `NCC(=CF)COc1ccc(C(=O)N2CCc3ccccc3C2)cc1` [TM45, (4-((2-aminomethyl-3-fluoroallyl)oxy)phenyl)-(3,4-dihydroisoquinolin-2(1H)-yl)methanone trifluoroacetate]: the inhibition at 2 mg/kg in data set [1] is 91.9 ± 6.4%. In addition, the IC50 is 0.9 ± 0.1 nM in data set [2] and above 10000 nM in data set [3].

Consider `NCC(=CF)COc1ccc(C(=O)Nc2ccc(F)cc2)cc1` [TM61, N-(4-fluorophenyl)-4-((2-aminomethyl-3-fluoroallyl)oxy)-benzamide trifluoroacetate], for which the inhibition at 2 mg/kg in data set [1] turned out to be 99.7 ± 8.7%. In addition, the half-maximal inhibitory concentration (IC50) in data set [2] is 0.5 nM; in data set [3] it was above 10000 nM.

In the case of `NC/C(=C\F)COc1ccc(C(=O)N[C@H]2CCCc3ccccc32)cc1` [TM63-E, (E)-(S)-N-(1,2,3,4-tetrahydro-1-naphthyl)-4-(2-aminomethyl-3-fluoroallyl)oxy)-benzamide trifluoroacetate], the half-inhibitory concentration (IC50) in data set [2] was 5.7 ± 0.8 nM; in data set [3], above 10000 nM.

As for `NC/C(=C/F)COc1ccc(C(=O)N[C@H]2CCCc3ccccc32)cc1` [TM63-Z, (Z)-(S)-N-(1,2,3,4-tetrahydro-1-naphthyl)-4-((2-aminomethyl-3-fluoroallyl)oxy)-benzamide trifluoroacetate], the half-maximal inhibitory concentration (IC50) is 4.4 ± 0.8 nM in data set [2] and above 10000 nM in data set [3].

As to `Cc1ccc(N(C)C(=O)c2ccc(OCC(=CF)CN)cc2)cc1` [TM67, N-methyl-N-p-methylphenyl-4-((2-aminomethyl-3-fluoroallyl)oxy)-benzamide trifluoroacetate], the IC50 in data set [2] is 11.5 ± 1.3 nM; in data set [3], above 30000 nM.

For `Cc1csc(-c2ccc(OCC(=CF)CN)cc2)n1` [TM70, 2-(4-(4-methylthiazolyl-2-phenoxy)methyl)-3-fluoroallylamine trifluoroacetate], the values for the half-inhibitory concentration (IC50) in data set [2] and in data set [3] were 0.2 nM and above 30000 nM, respectively.
